Key:
Assay type in all cases: cell-based
Septoria lycopersici = Septoria lycopersici (leaf spot of tomato) in vitro test, radial growth on Potato Dextrose Agar; conditions: 168 h, seven days, 25° C., read-out: % control compared to the untreated check (radial growth)
Pyricularia oryzae = test: microbe, parasite or virus in culture; conditions: 168 h, read-out: % control compared to the untreated check (radial growth)
Rhizoctonia solani = Rhizoctonia solani (rice sheath blight/potato black scurf) in vitro test, radial growth on Potato Dextrose Agar; conditions: 168 h, 300 ppm, seven days, 25° C., read-out: % control compared to the untreated check (radial growth)
Colletotrichum capsici = Colletotrichum capsici (anthracnose) in vitro test, radial growth on Potato Dextrose Agar; conditions: Colletotrichum truncatum, 168 h; 300 ppm; seven days, 25° C.; read-out: % control compared to the untreated check (radial growth)
Botrytis cinerea = Botrytis cinerea (gray mold) in vitro test, radial growth on Potato Dextrose Agar; conditions: 168 h, 300 ppm, seven days, 22° C., read-out: % (control) compared to the untreated check (radial growth)
Alternaria solani = Alternaria solani (early blight of tomato/potato) in vitro test, radial growth on Potato Dextrose Agar; conditions: 168 h, 300 ppm, seven days, 25° C., read-out: % control compared to the untreated check (radial growth)
Fusarium culmorum = Fusarium culmorum (foot rot of cereals) in vitro test, radial growth on Potato Dextrose Agar; conditions: Fusarium culmorum, 168 h, read-out: % control compared to the untreated check (radial growth)

SMILES	inhibition of growth at 300 ppm (Septoria lycopersici) [%]	inhibition of growth at 300 ppm (Pyricularia oryzae) [%]	inhibition of growth at 300 ppm (Rhizoctonia solani) [%]	inhibition of growth at 300 ppm (Colletotrichum capsici) [%]	inhibition of growth at 300 ppm (Botrytis cinerea) [%]	inhibition of growth at 300 ppm (Alternaria solani) [%]	inhibition of growth at 300 ppm (Fusarium culmorum) [%]
CCN(C)C=Nc1cc(C)c(Cc2ccc(SC(F)(F)F)cc2)cc1C [Compound 92, N′-(2,5-dimethyl-4-(4-((trifluoromethyl)thio)benzyl)phenyl)-N-ethyl-N-methylformimidamide]	> 70	> 75	> 80	> 80	> 80	> 75	75
CCN(C)C=Nc1cc(C)c(Cc2ccc(Cl)c(C)c2)cc1C [Compound 108, N′-(4-(4-chloro-3-methylbenzyl)-2,5-dimethylphenyl)-N-ethyl-N-methylformimidamide]	> 70	> 75	> 80	> 80	> 80	> 75	75
CCN(C)C=Nc1cc(C)c(Cc2ccc(F)c(C)c2)cc1C [Compound 109, N-ethyl-N′-(4-(4-fluoro-3-methylbenzyl)-2,5-dimethylphenyl)-N-methylformimidamide]	> 70	> 75	> 80	> 80	> 80	> 75	75
CCN(C)C=Nc1cc(C)c(Cc2ccc(C)c(C)c2)cc1C [Compound 113, N′-(4-(3,4-dimethylbenzyl)-2,5-dimethylphenyl)-N-ethyl-N-methylformimidamide]	> 70	> 75	> 80	> 80	> 80	> 75	75
CCN(C)C=Nc1cc(C)c(Cc2cc(C)cc(C)c2)cc1C [Compound 114, N′-(4-(3,5-dimethylbenzyl)-2,5-dimethylphenyl)-N-ethyl-N-methylformimidamide]	> 70	> 75	> 80	> 80	> 80	> 75	75
CCN(C)C=Nc1cc(C)c(Cc2ccc(OC(F)(F)F)cc2)cc1C [Compound 117, N′-(2,5-dimethyl-4-(4-(trifluoromethoxy)benzyl)phenyl)-N-ethyl-N-methylformimidamide]	> 70	> 75	> 80	> 80	> 80	> 75	75
CCN(C)C=Nc1cc(C)c(Cc2cccc(Cl)c2F)cc1C [Compound 118, N′-(4-(3-chloro-2-fluorobenzyl)-2,5-dimethylphenyl)-N-ethyl-N-methylformimidamide]	> 70	> 75	> 80	> 80	> 80	> 75	75
CCN(C)C=Nc1cc(C)c(Cc2cc(F)cc(F)c2)cc1Cl [Compound 129, N′-(2-chloro-4-(3,5-difluorobenzyl)-5-methylphenyl)-N-ethyl-N-methylformimidamide]	> 70	> 75	> 80	> 80	> 80	> 75	75
CCN(C)C=Nc1cc(C)c(Cc2ccc(F)c(F)c2)cc1Cl [Compound 138, N′-(2-chloro-4-(3,4-difluorobenzyl)-5-methylphenyl)-N-ethyl-N-methylformimidamide]	> 70	> 75	> 80	> 80	> 80	> 75	75
CCN(C)C=Nc1cc(C)c(Cc2ccc(C)c(F)c2)cc1Cl [Compound 139, N′-(2-chloro-4-(3-fluoro-4-methylbenzyl)-5-methylphenyl)-N-ethyl-N-methylformimidamide]	> 70	> 75	> 80	> 80	> 80	> 75	75
CCN(C)C=Nc1cc(C)c(Cc2ccc(Cl)c(C(F)(F)F)c2)cc1C [Compound 142, N′-(4-(4-chloro-3-(trifluoromethyl)benzyl)-2,5-dimethylphenyl)-N-ethyl-N-methylformimidamide]	> 70	> 75	> 80	> 80	> 80	> 75	75
CCN(C)C=Nc1cc(C)c(Cc2cc(F)ccc2Cl)cc1C [Compound 143, N′-(4-(2-chloro-5-fluorobenzyl)-2,5-dimethylphenyl)-N-ethyl-N-methylformimidamide]	> 70	> 75	> 80	> 80	> 80	> 75	75
CCN(C)C=Nc1cc(C)c(Cc2ccc(C)c(F)c2)cc1C [Compound 144, N-ethyl-N′-(4-(3-fluoro-4-methylbenzyl)-2,5-dimethylphenyl)-N-methylformimidamide]	> 70	> 75	> 80	> 80	> 80	> 75	75
CCN(C)C=Nc1cc(C)c(Cc2ccc(Cl)c(OC(F)(F)F)c2)cc1C [Compound 145, N′-(4-(4-chloro-3-(trifluoromethoxy)benzyl)-2,5-dimethylphenyl)-N-ethyl-N-methylformimidamide]	> 70	> 75	> 80	> 80	> 80	> 75	75
CCN(C)C=Nc1cc(C)c(Cc2ccc(F)c(F)c2)cc1C [Compound 146, N′-(4-(3,4-difluorobenzyl)-2,5-dimethylphenyl)-N-ethyl-N-methylformimidamide]	> 70	> 75	> 80	> 80	> 80	> 75	75
CCN(C)C=Nc1cc(C)c(Cc2ccccc2Br)cc1C [Compound 154, N′-(4-(2-bromobenzyl)-2,5-dimethylphenyl)-N-ethyl-N-methylformimidamide]	> 70	> 75	> 80	> 80	> 80	> 75	75
CCN(C)C=Nc1cc(C)c(Cc2ccc(C(F)(F)F)c(F)c2)cc1C [Compound 158, N-ethyl-N′-(4-(3-fluoro-4-(trifluoromethyl)benzyl)-2,5-dimethylphenyl)-N-methylformimidamide]	> 70	> 75	> 80	> 80	> 80	> 75	75
CCN(C)C=Nc1cc(C)c(Cc2cc(C(F)(F)F)ccc2Cl)cc1C [Compound 159, N′-(4-(2-chloro-5-(trifluoromethyl)benzyl)-2,5-dimethylphenyl)-N-ethyl-N-methylformimidamide]	> 70	> 75	> 80	> 80	> 80	> 75	75
CCN(C)C=Nc1cc(C)c(Cc2ccc(Cl)cc2Cl)cc1C [Compound 162, N′-(4-(2,4-dichlorobenzyl)-2,5-dimethylphenyl)-N-ethyl-N-methylformimidamide]	> 70	> 75	> 80	> 80	> 80	> 75	75
CCN(C)C=Nc1cc(C)c(Cc2cc(F)ccc2C)cc1Cl [Compound 165, N′-(2-chloro-4-(5-fluoro-2-methylbenzyl)-5-methylphenyl)-N-ethyl-N-methylformimidamide]	> 70	> 75	> 80	> 80	> 80	> 75	75

Source: patent US11155517B2, “4-substituted phenylamine derivatives and their use to protect crops by fighting undesired phytopathogenic micoorganisms” (PI INDUSTRIES LTD., priority 2016, dated 2021)
